In patent publication US4801600A, “Aminomethyl oxooxazolidinyl cycloalkylbenzene derivatives useful as antibacterial agents” (E. I. Du Pont de Nemours and Company, priority 1987, dated 1989):
≈ marks a conversion by molar mass, not a printed value. Like-named read-outs stand apart in the source and are kept apart here.

Key:
Staphylococcus aureus [1] = test: In vitro broth microdilution MIC, Staphylococcus aureus; format: cell-based; conditions: 24-hour MIC, Mueller-Hinton broth, read-out: Minimum Inhibitory Concentration, Staphylococcus aureus
From the text: (§1) A standard microdilution method (National Committee for Clinical Standards. Tentative standard M7-T. Standard methods for dilution antimicrobial susceptibility tests for bacteria that grow aerobically. National Committee for Clinical Laboratory Standards, Villanova, PA. 1982) with Mueller-Hinton broth is used to determine the 24-hour minimal inhibitory concentrations (MIC's) for test strains of Staphylococcus aureus and Escherichia coli.

Staphylococcus aureus [2] = test: Acute lethal mouse model, intraperitoneal Staphylococcus aureus infection; format: in vivo; conditions: 168 h, mice dosed 1 h and 4 h post-infection
Protocol: Determinations of in vivo efficacy are performed by inoculating mice intraperitoneally with cultures of the infecting organism diluted to produce 100% of mortality in control animals within twenty-four hours. The culture of S. aureus used to infect the animals was diluted to the required bacterial density using 5% aqueous hog gastric mucin. The compounds are dissolved or suspended in 0.25% aqueous Methocal® (Methocel®: Hydroxypropyl Methylcellulose, E15 Premium, Dow Chemical Company) for oral administration or sterile distilled water containing 5% dimethylsulfoxide (Fisher Scientific Company, Fairlawn, N.J.) for subcutaneous administration. The mice are dosed at one hour and at four hours post-infection. Mortality is recorded daily until test termination seven days post infection. The number of survivors in each treatment group on the seventh day after infection is used in the calculation of the ED50, the dose of compound that protects 50% of the mice (Litchfield, J. T. and Wildoxon. A simplified method for evaluating dose-effect experiments. J. Pharmacol Exp. Ther., 96:99-113, 1949 ).

Escherichia coli = test: In vitro broth microdilution MIC, Escherichia coli; format: cell-based; conditions: 24-hour MIC, Mueller-Hinton broth, read-out: Minimum Inhibitory Concentration, Escherichia coli
From the text: as §1

[3] = oral, survival at day 7, read-out: ED50, Oral Administration
[4] = sc, subcutaneous, survival at day 7, read-out: ED50, Subcutaneous Administration

Row | Compound | MIC (Staphylococcus aureus [1]) [µg/mL] | ED50 (Staphylococcus aureus [2]; [3]) [mg/kg] | ED50 (Staphylococcus aureus [2]; [4]) [mg/kg] | MIC (Escherichia coli) [µg/mL]
1 | CC(=O)NCC1CN(c2ccc3c(c2)CCC3)C(=O)O1 (single isomer, unassigned) [Example 1F, (l)-N-[3-(2,3-Dihydro-1H-inden-5-yl)-2-oxooxazolidin-5-ylmethyl]acetamide] | 2 (≈ 7.29 µM) | 2.2 | 1.7 | > 128
2 | CC(=O)NCC1CN(c2ccc3c(c2)CCC3=O)C(=O)O1 (single isomer, unassigned) [Example 16, (l)-N-[3-(2,3-Dihydro-1-oxo-1H-inden-5-yl)-2-oxooxazolidin-5-ylmethyl]acetamide] | 2 to 4 (≈ 6.94 to 13.9 µM) | 1.6 | 1.2 | > 128
3 | CC(=O)NCC1CN(c2ccc3c(c2)CCC3O)C(=O)O1 (single isomer, unassigned) [Example 17, (l)-N-[3-(2,3-Dihydro-1-hydroxy-1H-inden-5-yl)-2-oxooxazolidin-5-ylmethyl]acetamide] | 8 (≈ 27.6 µM) | 1.9 | 1.8 | > 128
4 | CC(=O)NCC1CN(c2ccc3c(c2)CCC3=NN2CCN(C)CC2)C(=O)O1 (single isomer, unassigned) [Example 18, (l)-N-[3-[1,2-Dihydro-1-(4-methyl-1-piperazinylimino)-1H-inden-5-yl]-2-oxooxazolidin-5-ylmethyl]acetamide] | 8 to 16 (≈ 20.8 to 41.5 µM) | 13.9 | 20.3 | > 128
